In patent US20160002204A1 (Board of Regents, The University of Texas System, priority 2014, published 2016):

How the values were obtained:
[1] = molecular target: T1, GLS1 (purified recombinant human GAC) (Homo sapiens, UniProt O94925); assay: GLS1 enzymatic activity assay (dual-coupled, Amplex UltraRed/resorufin); format: biochemical
T1 sequence (O94925 55-598 isoform O94925-3 limits assumed): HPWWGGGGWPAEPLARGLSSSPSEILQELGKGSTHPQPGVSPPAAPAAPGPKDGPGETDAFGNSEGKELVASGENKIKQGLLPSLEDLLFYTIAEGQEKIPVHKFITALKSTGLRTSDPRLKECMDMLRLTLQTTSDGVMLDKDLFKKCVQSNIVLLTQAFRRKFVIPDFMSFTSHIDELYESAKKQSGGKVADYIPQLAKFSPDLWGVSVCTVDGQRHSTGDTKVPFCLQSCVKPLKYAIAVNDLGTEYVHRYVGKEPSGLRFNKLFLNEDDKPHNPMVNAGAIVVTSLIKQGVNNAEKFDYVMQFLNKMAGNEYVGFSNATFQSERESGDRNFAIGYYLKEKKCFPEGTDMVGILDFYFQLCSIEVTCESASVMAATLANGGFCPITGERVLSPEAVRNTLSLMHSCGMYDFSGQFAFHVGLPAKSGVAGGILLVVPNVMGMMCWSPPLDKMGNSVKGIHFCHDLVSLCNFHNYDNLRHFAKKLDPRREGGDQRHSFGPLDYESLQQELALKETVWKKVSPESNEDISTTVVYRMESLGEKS
Method in brief: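 In this coupled fluorometric format, phosphate-activated GAC (2 nM, 50 mM phosphate) is pre-exposed to compound for 10 min before 1 mM glutamine addition. Product is tracked as resorufin (530/590 nm) over time or at 20 min, and potency is derived by logistic fitting.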

A549 cells = assay: A549 proliferation (viability) assay, Cell Titer Fluor, 72 hours; format: cell-based; details: Homo sapiens
Method in brief: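 Compound was added to A549 cells (1000/well, pre-grown 24 h in RPMI 1640 plus 10% dialyzed FBS) at 0.5% DMSO and left 72 h under 37 °C, 5% CO2, ambient O2. Live-cell fluorescence (Cell Titer Fluor) gave the EC50.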

| Structure (SMILES) | IC50 [1] [nM] | EC50 (A549 cells) [nM] |
| --- | --- | --- |
| Cc1ccc(CNC(=O)c2cn(CC(F)CCn3ccc(NC(=O)CC4CCSCC4)cc3=O)nn2)cn1 (centres unmarked) [Example 198, 1-(2-fluoro-4-{2-oxo-4-[2-(thian-4-yl)acetamido]-1,2-dihydropyridin-1-yl}butyl)-N-[(6-methylpyridin-3-yl)methyl]-1H-1,2,3-triazole-4-carboxamide] | < 100 | 100 to 500 |
| Cc1ccc(CNC(=O)c2cn(CC(F)CCn3ccc(NC(=O)CC4CCCC4)cc3=O)nn2)cn1 (centres unmarked) [Example 199, 1-{4-[4-(2-cyclopentylacetamido)-2-oxo-1,2-dihydropyridin-1-yl]-2-fluorobutyl}-N-[(6-methylpyridin-3-yl)methyl]-1H-1,2,3-triazole-4-carboxamide] | < 100 | < 100 |
| Cc1ccc(CNC(=O)c2cn(CC(F)CCn3ccc(NC(=O)CC4CCCO4)cc3=O)nn2)cn1 (centres unmarked) [Example 200, 1-(2-fluoro-4-{2-oxo-4-[2-(oxolan-2-yl)acetamido]-1,2-dihydropyridin-1-yl}butyl)-N-[(6-methylpyridin-3-yl)methyl]-1H-1,2,3-triazole-4-carboxamide] | 100 to 500 | 500 to 5000 |
| O=C(CC1CCC1)Nc1ccn(CCCCn2cc(C(=O)NCc3cccc(OC(F)(F)F)c3)nn2)c(=O)c1 [Example 201, 1-{4-[4-(2-cyclobutylacetamido)-2-oxo-1,2-dihydropyridin-1-yl]butyl}-N-{[3-(trifluoromethoxy)phenyl]methyl}-1H-1,2,3-triazole-4-carboxamide] | < 100 | 100 to 500 |
| O=C(Cc1cccs1)Nc1ccn(CCCCn2cc(C(=O)NCc3cccc(OC(F)(F)F)c3)nn2)c(=O)c1 [Example 202, 1-(4-{2-oxo-4-[2-(thiophen-2-yl)acetamido]-1,2-dihydropyridin-1-yl}butyl)-N-{[3-(trifluoromethoxy)phenyl]methyl}-1H-1,2,3-triazole-4-carboxamide] | < 100 | 100 to 500 |
| O=C(Cc1ccsc1)Nc1ccn(CCCCn2cc(C(=O)NCc3cccc(OC(F)(F)F)c3)nn2)c(=O)c1 [Example 203, 1-(4-{2-oxo-4-[2-(thiophen-3-yl)acetamido]-1,2-dihydropyridin-1-yl}butyl)-N-{[3-(trifluoromethoxy)phenyl]methyl}-1H-1,2,3-triazole-4-carboxamide] | < 100 | 100 to 500 |
| O=C1CCC(CC(=O)Nc2ccn(CCCCn3cc(C(=O)NCc4cccc(OC(F)(F)F)c4)nn3)c(=O)c2)CC1 [Example 204, 1-(4-{2-oxo-4-[2-(4-oxocyclohexyl)acetamido]-1,2-dihydropyridin-1-yl}butyl)-N-{[3-(trifluoromethoxy)phenyl]methyl}-1H-1,2,3-triazole-4-carboxamide] | < 100 | 500 to 5000 |
| CC(C)(C)OC(=O)N1CCC(CC(=O)Nc2ccn(CCCCn3cc(C(=O)NCc4cccc(OC(F)(F)F)c4)nn3)c(=O)c2)CC1 [Example 205, tert-butyl 4-{[(2-oxo-1-{4-[4-({[3-(trifluoromethoxy)phenyl]methyl}carbamoyl)-1H-1,2,3-triazol-1-yl]butyl}-1,2-dihydropyridin-4-yl)carbamoyl]methyl}piperidine-1-carboxylate] | < 100 | < 100 |
| O=C(CC1CCCCO1)Nc1ccn(CCCCn2cc(C(=O)NCc3cccc(OC(F)(F)F)c3)nn2)c(=O)c1 (centres unmarked) [Example 206, 1-(4-{4-[2-(oxan-2-yl)acetamido]-2-oxo-1,2-dihydropyridin-1-yl}butyl)-N-{[3-(trifluoromethoxy)phenyl]methyl}-1H-1,2,3-triazole-4-carboxamide] | < 100 | < 100 |
| O=C(CC1CCC(O)CC1)Nc1ccn(CCCCn2cc(C(=O)NCc3cccc(OC(F)(F)F)c3)nn2)c(=O)c1 (centres unmarked) [Example 208, 1-(4-{4-[2-(4-hydroxycyclohexyl)acetamido]-2-oxo-1,2-dihydropyridin-1-yl}butyl)-N-{[3-(trifluoromethoxy)phenyl]methyl}-1H-1,2,3-triazole-4-carboxamide] | < 100 | 500 to 5000 |
| CNC1CCC(CC(=O)Nc2ccn(CCCCn3cc(C(=O)NCc4cccc(OC(F)(F)F)c4)nn3)c(=O)c2)CC1 (centres unmarked) [Example 209, 1-[4-(4-{2-[4-(methylamino)cyclohexyl]acetamido}-2-oxo-1,2-dihydropyridin-1-yl)butyl]-N-{[3-(trifluoromethoxy)phenyl]methyl}-1H-1,2,3-triazole-4-carboxamide] | < 100 | 500 to 5000 |
| O=C(CC1CCCC1)Nc1ccn(CCCCn2cc(C(=O)NCc3cccc(OC(F)(F)F)c3)nn2)c(=O)c1 [Example 210, 1-{4-[4-(2-cyclopentylacetamido)-2-oxo-1,2-dihydropyridin-1-yl]butyl}-N-{[3-(trifluoromethoxy)phenyl]methyl}-1H-1,2,3-triazole-4-carboxamide] | < 100 | < 100 |
| CC(C)(C)OC(=O)N[C@H]1CCC[C@H](C(=O)Nc2ccn(CCCCn3cc(C(=O)NCc4cccc(OC(F)(F)F)c4)nn3)c(=O)c2)C1 [Example 211, tert-butyl N-[(1S,3S)-3-[(2-oxo-1-{4-[4-({[3-(trifluoro-methoxy)phenyl]methyl}carbamoyl)-1H-1,2,3-triazol-1-yl]butyl}-1,2-dihydropyridin-4-yl)carbamoyl]cyclohexyl]carbamate] | < 100 | 100 to 500 |
| O=C(CC1CCCCC1)Nc1ccn(CCC(F)Cn2cc(C(=O)NCc3cccc(OC(F)(F)F)c3)nn2)c(=O)c1F (centres unmarked) [Example 212, 1-{4-[4-(2-cyclohexylacetamido)-3-fluoro-2-oxo-1,2-dihydropyridin-1-yl]-2-fluorobutyl}-N-{[3-(trifluoromethoxy)phenyl]methyl}-1H-1,2,3-triazole-4-carboxamide] | < 100 | < 100 |
| O=C(CN1CCOCC1)Nc1ccn(CCC(F)Cn2cc(C(=O)NCc3cccc(OC(F)(F)F)c3)nn2)c(=O)c1 (centres unmarked) [Example 213, 1-(2-fluoro-4-{4-[2-(morpholin-4-yl)acetamido]-2-oxo-1,2-dihydropyridin-1-yl}butyl)-N-{[3-(trifluoromethoxy)phenyl]methyl}-1H-1,2,3-triazole-4-carboxamide] | 100 to 500 | 500 to 5000 |
| O=C(CC1CCC1)Nc1ccn(CCC(F)Cn2cc(C(=O)NCc3cc(Cl)ccc3F)nn2)c(=O)c1 (centres unmarked) [Example 214, N-[(5-chloro-2-fluorophenyl)methyl]-1-{4-[4-(2-cyclobutylacetamido)-2-oxo-1,2-dihydropyridin-1-yl]-2-fluorobutyl}-1H-1,2,3-triazole-4-carboxamide] | < 100 | 100 to 500 |
| O=C(CC1CCCCO1)Nc1ccn(CCC(F)Cn2cc(C(=O)NCc3cc(Cl)ccc3F)nn2)c(=O)c1 (centres unmarked) [Example 215, N-[(5-chloro-2-fluorophenyl)methyl]-1-(2-fluoro-4-{4-[2-(oxan-2-yl)acetamido]-2-oxo-1,2-dihydropyridin-1-yl}butyl)-1H-1,2,3-triazole-4-carboxamide] | < 100 | 100 to 500 |
| O=C(Cc1ccccc1)Nc1ccn(CCC(F)Cn2cc(C(=O)NCc3cc(Cl)ccc3F)nn2)c(=O)c1 (centres unmarked) [Example 216, N-[(5-chloro-2-fluorophenyl)methyl]-1-{2-fluoro-4-[2-oxo-4-(2-phenylacetamido)-1,2-dihydropyridin-1-yl]butyl}-1H-1,2,3-triazole-4-carboxamide] | < 100 | 100 to 500 |
| O=C(CC1CCC1)Nc1ccn(CCC(F)Cn2cc(C(=O)NCc3cccc(OC(F)(F)F)c3)nn2)c(=O)c1 (stereo not drawn) [Example 217, l-{4-[4-(2-cyclobutylacetamido)-2-oxo-1,2-dihydropyridin-1-yl]-2-fluorobutyl}-N-{[3-(trifluoromethoxy)phenyl]methyl}-1H-1,2,3-triazole-4-carboxamide] | < 100 | < 100 |
| CC(C)(C)OC(=O)N1CCC(CC(=O)Nc2ccn(CCC(F)Cn3cc(C(=O)NCc4cccc(OC(F)(F)F)c4)nn3)c(=O)c2)CC1 (centres unmarked) [Example 219, tert-butyl 4-{[(1-{3-fluoro-4-[4-({[3-(trifluoromethoxy)phenyl]methyl}carbamoyl)-1H-1,2,3-triazol-1-yl]butyl}-2-oxo-1,2-dihydropyridin-4-yl)carbamoyl]methyl}piperidine-1-carboxylate] | < 100 | < 100 |
| O=C(CC1CCCC1)Nc1ccn(CCC(F)Cn2cc(C(=O)NCc3cccc(OC(F)(F)F)c3)nn2)c(=O)c1 (centres unmarked) [Example 220, 1-{4-[4-(2-cyclopentylacetamido)-2-oxo-1,2-dihydropyridin-1-yl]-2-fluorobutyl}-N-{[3-(trifluoromethoxy)phenyl]methyl}-1H-1,2,3-triazole-4-carboxamide] | < 100 | < 100 |
| CC(C)(C)OC(=O)N1CCC(CC(=O)Nc2ccn(CCC(F)Cn3cc(C(=O)NCc4cccc(OC(F)(F)F)c4)nn3)c(=O)c2)C1 (centres unmarked) [Example 221, tert-butyl 3-{[(1-{3-fluoro-4-[4-({[3-(trifluoromethoxy)phenyl]methyl}carbamoyl)-1H-1,2,3-triazol-1-yl]butyl}-2-oxo-1,2-dihydropyridin-4-yl)carbamoyl]methyl}pyrrolidine-1-carboxylate] | < 100 | < 100 |
